In brackets after ≈: the same amount, converted by molar mass. Like-named read-outs stand apart in the source and are kept apart here.
How the values were obtained:
[1] = anti-bacterial properties of SSD degradation products; details: compared with SSD before degradation in the bladder
Description: These degradation products include, for example, sulfanilic acid; sulfanilamide; sulfaguanidine, the guanidine derivative of sulfanilamide; and […].

[2] = tested on: MDR Ecoli and non-MDR Ecoli isolates; assay: MIC90 of antimicrobial agents; assay type: cell-based
[3] = density and max drug loading of antimicrobial agents considered for carrier particles; assay type: physicochemical; details: Table 7
[4] = cited from earlier work
density of materials = assay type: physicochemical; details: Table 4
[5] = agents marked *: tested against both MDR Ecoli and non-MDR Ecoli isolates, read-out: MIC90
[6] = tested against non-MDR Ecoli isolates only, read-out: MIC90
[7] = agents marked *: tested against both MDR Ecoli and non-MDR Ecoli isolates
[8] = tested against non-MDR Ecoli isolates only

For `Nc1ccccn1` [2-aminopyridine], the anti-bacterial properties [1] was “comparable to the original compound”.

In the case of `NCC[C@H](O)C(=O)N[C@@H]1C[C@H](N)[C@@H](O[C@H]2O[C@H](CN)[C@@H](O)[C@H](O)[C@H]2O)[C@H](O)[C@H]1O[C@H]1O[C@H](CO)[C@@H](O)[C@H](N)[C@H]1O` [Amikacin], the MIC90 [2, 5] is given as 4 µg/mL (≈ 6.83 µM), the Density [3] is given as 1.6 g/mL and the solubility in water [4] is given as 50 mg/mL (≈ 85400 µM).

Compound `C[C@H]1[C@H](NC(=O)/C(=N\OC(C)(C)C(=O)O)c2csc(N)n2)C(=O)N1S(=O)(=O)O` [Aztreoman] has an MIC90 [2, 6] of 16 µg/mL (≈ 36.7 µM) and a Density [3] of 1.83 g/mL.

With `CO/N=C(\C(=O)N[C@@H]1C(=O)N2C(C(=O)[O-])=C(C[N+]3(C)CCCC3)CS[C@H]12)c1csc(N)n1` [Cefepime] the MIC90 [2, 6] was 8 µg/mL (≈ 16.6 µM) and the Density [3] was 1.6 g/mL.

For `CO[C@@]1(NC(=O)Cc2cccs2)C(=O)N2C(C(=O)O)=C(COC(N)=O)CS[C@@H]21` [Cefoxitin], the MIC90 [2, 6] was 16 µg/mL (≈ 37.4 µM) and the Density [3] was 1.6 g/mL.

With `CC(C)(O/N=C(\C(=O)N[C@@H]1C(=O)N2C(C(=O)[O-])=C(C[n+]3ccccc3)CS[C@H]12)c1csc(N)n1)C(=O)O` [Ceftazidime] the MIC90 [2, 6] was 8 µg/mL (≈ 14.6 µM) and the Density [3] was 1.6 g/mL.

`[H]/N=C(\N/C(=N/[H])NCCCCCCNC(=N)NC(=N)Nc1ccc(Cl)cc1)Nc1ccc(Cl)cc1` [Chlorohexidine] showed an MIC90 [2, 6] of 3 µg/mL (≈ 5.94 µM) and a Density [3] of 1.06 g/mL.

Compound `C[C@@H](O)[C@H]1C(=O)N2C(C(=O)O)=C(S[C@@H]3CN[C@H](CNS(N)(=O)=O)C3)[C@H](C)[C@H]12` [Doripenem] has an MIC90 [2, 6] of at most 0.12 µg/mL.

`C[C@@H](O)[C@H]1C(=O)N2C(C(=O)O)=C(S[C@@H]3CN[C@H](C(=O)Nc4cccc(C(=O)O)c4)C3)[C@H](C)[C@H]12` [Ertapenem] showed an MIC90 [2, 5] of 0.03 µg/mL (≈ 0.0631 µM) and a Density [3] of 1.6 g/mL.

Compound `CCCCCCCCCCCCCCCCCCCCCC(=O)OCC(O)CO` (centres unmarked) [Glyceryl behenate] has a Density (density of materials) of 0.942 g/mL.

Work on `CCCCCCCCCCCCCC(=O)OCC(COC(=O)CCCCCCCCCCCCC)OC(=O)CCCCCCCCCCCCC` [Glyceryl trimyristate] yielded a Density (density of materials) of 0.885 g/mL.

With `CCCCCCCCCCCCCCCC(=O)OCC(COC(=O)CCCCCCCCCCCCCCC)OC(=O)CCCCCCCCCCCCCCC` [Glyceryl tripalmitate] the Density (density of materials) was 0.8752 g/mL.

With `CCCCCCCCCCCCCCCCCC(=O)OCC(COC(=O)CCCCCCCCCCCCCCCCC)OC(=O)CCCCCCCCCCCCCCCCC` [Glyceryl tristearate] the Density (density of materials) was 0.862 g/mL.

Work on `C[C@@H](O)[C@H]1C(=O)N2C(C(=O)O)=C(SCCN=CN)C[C@H]12` [Imipenem] yielded an MIC90 [2, 5] of at most 0.12 µg/mL.

For `C[C@@H](O)[C@H]1C(=O)N2C(C(=O)O)=C(S[C@@H]3CN[C@H](C(=O)N(C)C)C3)[C@H](C)[C@H]12` [Meropenem], the MIC90 [2, 6] was at most 0.06 µg/mL and the Density [3] was 1.4 g/mL.

`CCCCCCCCCCCCCCCCCCO` [Stearyl alcohol] showed a Density (density of materials) of 0.812 g/mL.

`CN(C)c1cc(NC(=O)CNC(C)(C)C)c(O)c2c1C[C@H]1C[C@H]3[C@H](N(C)C)C(O)=C(C(N)=O)C(=O)[C@@]3(O)C(O)=C1C2=O` [Tigecycline] showed an MIC90 [2] of 0.25 µg/mL (≈ 0.427 µM) and a Density [3] of 1.5 g/mL.

In the case of `NC[C@H]1O[C@H](O[C@H]2[C@H](O)[C@@H](O[C@H]3O[C@H](CO)[C@@H](O)[C@H](N)[C@H]3O)[C@H](N)C[C@@H]2N)[C@H](N)C[C@@H]1O` [Tobramycin], the MIC90 [2, 6] is reported as 8 µg/mL (≈ 17.1 µM) and the Density [3] is reported as 1.5 g/mL.

With `[H]/N=C(/N)NS(=O)(=O)c1ccc(N)cc1` [sulfaguanidine] the anti-bacterial properties [1] was “comparable to the original compound”.

In the case of `Nc1ccc(S(N)(=O)=O)cc1` [sulfanilamide], the anti-bacterial properties [1] is reported as “comparable to the original compound”.

For `Nc1ccc(S(=O)(=O)O)cc1` [sulfanilic acid], the anti-bacterial properties [1] was “comparable to the original compound”.

Cefoperazone-avibactam gave an MIC90 [2, 7] of 0.25 ppm and a Density [3] of 1.5 g/mL.

With Cefoperazone-sulbactam the MIC90 [2, 8] was 4 ppm.

Work on Cefoperazone-tazobacatam yielded an MIC90 [2, 7] of 0.5 ppm and a Density [3] of 1.5 g/mL.

Work on Colistin yielded an MIC90 [2, 7] of at most 0.5 ppm.

In the case of Piperacillin-tazobactam, the MIC90 [2, 8] is reported as 4 ppm and the Density [3] is reported as 1.5 g/mL.

For Polymxin B, the MIC90 [2, 7] was 1 ppm.

— patent US20250275988A1, “FORMULATION FOR TREATING URINARY SYSTEM DISORDERS” (WATERSHED MEDICAL, INC., priority 2022, published 2025)
